Source: patent US9040530B2, “1,2,4-triazine-6-carboxamide kinase inhibitors” (Portola Pharmaceuticals, Inc., priority 2012, dated 2015)

target: T1, full length active recombinant SYK enzyme (Homo sapiens, UniProt P43405); assay: Inhibition of Syk tyrosine phosphorylation activity (LANCE TR-FRET kinase assay); format: biochemical; settings: 1 nM active SYK enzyme, 550 nM SYK-substrate, 100 μM ATP, 1 hour at room temperature
T1 construct: full length active recombinant SYK enzyme (Millipore, Calif.); purchased Millipore

SMILES | IC50 [nM]
Cc1ccc(Nc2nc(N[C@@H]3CCCC(F)(F)[C@@H]3N)nnc2C(N)=O)cc1C#N [Example 233, 3-(((1R,2R)-2-amino-3,3-difluorocyclohexyl)amino)-5-((3-cyano-4-methylphenyl)amino)-1,2,4-triazine-6-carboxamide] | 100 to 1000
NC(=O)c1nnc(N[C@@H]2CCCC[C@@H]2N)nc1Nc1ccc(N2CCOCC2=O)cc1 [Example 34, 3-(((1R,2S)-2-aminocyclohexyl)amino)-5-((4-(3-oxomorpholino)phenyl)amino)-1,2,4-triazine-6-carboxamide] | 100 to 1000
NC(=O)c1nnc(N[C@@H]2CCCC[C@@H]2N)nc1Nc1ccc2ncccc2c1 [Example 47, 3-(((1R,2S)-2-aminocyclohexyl)amino)-5-(quinolin-6-ylamino)-1,2,4-triazine-6-carboxamide] | 1 to 10
NC(=O)c1nnc(N[C@@H]2CCOC[C@@H]2N)nc1Nc1cnc2cccnc2c1 [Example 257, 5-((1,5-naphthyridin-3-yl)amino)-3-(((3R,4R)-3-aminotetrahydro-2H-pyran-4-yl)amino)-1,2,4-triazine-6-carboxamide] | 100 to 1000
NC(=O)c1nnc(N[C@@H]2CCCC[C@@H]2N)nc1Nc1ccc(F)cc1 [Example 25, 3-(((1R,2S)-2-aminocyclohexyl)amino)-5-((4-fluorophenyl)amino)-1,2,4-triazine-6-carboxamide] | 10 to 100
CN(C)C(=O)c1ccc(Nc2nc(N[C@@H]3CCCC[C@@H]3N)nnc2C(N)=O)cn1 [Example 65, 3-(((1R,2S)-2-aminocyclohexyl)amino)-5-((6-(dimethylcarbamoyl)pyridin-3-yl)amino)-1,2,4-triazine-6-carboxamide] | > 1000
NC(=O)c1nnc(N[C@@H]2CCCC[C@@H]2N)nc1Nc1cccc(Cl)c1 [Example 23, 3-(((1R,2S)-2-aminocyclohexyl)amino)-5-((3-chlorophenyl)amino)-1,2,4-triazine-6-carboxamide] | 1 to 10
NC(=O)c1nnc(N[C@@H]2CCCC[C@@H]2N)nc1Nc1ccc(N2CCOCC2)c(F)c1 [Example 30, 3-(((1R,2S)-2-aminocyclohexyl)amino)-5-((3-fluoro-4-morpholinophenyl)amino)-1,2,4-triazine-6-carboxamide] | 1 to 10
NC(=O)c1nnc(N[C@@H]2CCCC[C@@H]2N)nc1Nc1ccc(F)nc1 [Example 67, 3-(((1R,2S)-2-aminocyclohexyl)amino)-5-((6-fluoropyridin-3-yl)amino)-1,2,4-triazine-6-carboxamide] | 100 to 1000
CC(C)C[C@@H](Nc1nnc(C(N)=O)c(Nc2cccc(-c3ncccn3)c2)n1)C(N)=O [Example 77, (R)-3-((1-amino-4-methyl-1-oxopentan-2-yl)amino)-5-((3-(pyrimidin-2-yl)phenyl)amino)-1,2,4-triazine-6-carboxamide] | 10 to 100
CC[C@@H](Nc1nnc(C(N)=O)c(Nc2ccc3c(cnn3C)c2)n1)C(N)=O [Example 110, (R)-3-((1-amino-1-oxobutan-2-yl)amino)-5-((1-methyl-1H-indazol-5-yl)amino)-1,2,4-triazine-6-carboxamide] | 10 to 100
CC[C@@H](Nc1nnc(C(N)=O)c(Nc2cccc(C#N)c2)n1)C(N)=O [Example 73, (R)-3-((1-amino-1-oxobutan-2-yl)amino)-5-((3-cyanophenyl)amino)-1,2,4-triazine-6-carboxamide] | 100 to 1000
CC[C@@H](Nc1nnc(C(N)=O)c(Nc2ccc(Cl)c(C(F)(F)F)c2)n1)C(N)=O [Example 240, (R)-3-((1-amino-1-oxobutan-2-yl)amino)-5-((4-chloro-3-(trifluoromethyl)phenyl)amino)-1,2,4-triazine-6-carboxamide] | 100 to 1000
NC(=O)c1nnc(N[C@@H]2CCCC[C@@H]2N)nc1Nc1ccc([N+]2([O-])CCCCC2)c(F)c1 [Example 32, 1-(4-((3-(((1R,2S)-2-aminocyclohexyl)amino)-6-carbamoyl-1,2,4-triazin-5-yl)amino)-2-fluorophenyl)piperidine 1-oxide] | 10 to 100
N#Cc1ccc(Nc2nc(N[C@@H]3CCOC[C@@H]3N)nnc2C(N)=O)cc1 [Example 76, 3-(((3R,4R)-3-aminotetrahydro-2H-pyran-4-yl)amino)-5-((4-cyanophenyl)amino)-1,2,4-triazine-6-carboxamide] | 100 to 1000
NC(=O)c1nnc(N[C@@H]2CCCC[C@@H]2N)nc1Nc1ccc(C(F)(F)F)cc1 [Example 168, 3-(((1R,2S)-2-aminocyclohexyl)amino)-5-((4-(trifluoromethyl)phenyl)amino)-1,2,4-triazine-6-carboxamide] | 10 to 100
CC[C@@H](Nc1nnc(C(N)=O)c(Nc2ccc(Cl)cc2)n1)C(N)=O [Example 200, (R)-3-((1-amino-1-oxobutan-2-yl)amino)-5-((4-chlorophenyl)amino)-1,2,4-triazine-6-carboxamide] | 10 to 100
NC(=O)c1nnc(N[C@@H]2CCCC(F)(F)[C@@H]2N)nc1Nc1ccc(Cl)c(Cl)c1 [Example 236, 3-(((1R,2R)-2-amino-3,3-difluorocyclohexyl)amino)-5-((3,4-dichlorophenyl)amino)-1,2,4-triazine-6-carboxamide] | 100 to 1000

SMILES | IC50 [nM]
NC(=O)c1nnc(N[C@@H]2CCCC[C@@H]2N)nc1Nc1cccc(-c2ncccn2)c1 [Example 1, 3-((1R,2S)-2-aminocyclohexylamino)-5-(3-(pyrimidin-2-yl)phenylamino)-1,2,4-triazine-6-carboxamide] | 1 to 10
NC(=O)c1nnc(N[C@@H]2CCCC[C@@H]2N)nc1Nc1cccc(C(F)(F)F)c1 [Example 170, 3-(((1R,2S)-2-aminocyclohexyl)amino)-5-((3-(trifluoromethyl)phenyl)amino)-1,2,4-triazine-6-carboxamide] | 1 to 10
Cn1ccc2ccc(Nc3nc(N[C@@H]4CCOC[C@@H]4N)nnc3C(N)=O)cc21 [Example 165, 3-(((3R,4R)-3-aminotetrahydro-2H-pyran-4-yl)amino)-5-((1-methyl-1H-indol-6-yl)amino)-1,2,4-triazine-6-carboxamide] | 1 to 10
Cc1ccc(Nc2nc(N[C@H](CC3CC3)C(N)=O)nnc2C(N)=O)cc1C [Example 210, (R)-3-((1-amino-3-cyclopropyl-1-oxopropan-2-yl)amino)-5-((3,4-dimethylphenyl)amino)-1,2,4-triazine-6-carboxamide] | 1 to 10
CC(C)C[C@@H](Nc1nnc(C(N)=O)c(Nc2cccc(-n3nccn3)c2)n1)C(N)=O [Example 83, (R)-5-((3-(2H-1,2,3-triazol-2-yl)phenyl)amino)-3-((1-amino-4-methyl-1-oxopentan-2-yl)amino)-1,2,4-triazine-6-carboxamide] | 10 to 100
NC(=O)c1nnc(N[C@@H]2CCOC[C@@H]2N)nc1Nc1ccccc1 [Example 95, 3-(((3R,4R)-3-aminotetrahydro-2H-pyran-4-yl)amino)-5-(phenylamino)-1,2,4-triazine-6-carboxamide] | 10 to 100
Cn1ncc2c(Nc3nc(N[C@@H]4CCOC[C@@H]4N)nnc3C(N)=O)cccc21 [Example 139, 3-(((3R,4R)-3-aminotetrahydro-2H-pyran-4-yl)amino)-5-((1-methyl-1H-indazol-4-yl)amino)-1,2,4-triazine-6-carboxamide] | 10 to 100
NC(=O)c1nnc(N[C@@H]2CCCC(F)(F)[C@@H]2N)nc1Nc1ccc2c(c1)COC2 [Example 216, 3-(((1R,2R)-2-amino-3,3-difluorocyclohexyl)amino)-5-((1,3-dihydroisobenzofuran-5-yl)amino)-1,2,4-triazine-6-carboxamide] | 10 to 100
CC[C@@H](Nc1nnc(C(N)=O)c(Nc2ccc3scnc3c2)n1)C(N)=O [Example 246, (R)-3-((1-amino-1-oxobutan-2-yl)amino)-5-(benzo[d]thiazol-5-ylamino)-1,2,4-triazine-6-carboxamide] | 10 to 100
CC[C@@H](Nc1nnc(C(N)=O)c(Nc2ccc3c(c2)COC3)n1)C(N)=O [Example 215, (R)-3-((1-amino-1-oxobutan-2-yl)amino)-5-((1,3-dihydroisobenzofuran-5-yl)amino)-1,2,4-triazine-6-carboxamide] | 10 to 100
NC(=O)c1nnc(N[C@@H]2CCCC(F)(F)[C@@H]2N)nc1Nc1ccccc1 [Example 96, 3-(((1R,2R)-2-amino-3,3-difluorocyclohexyl)amino)-5-(phenylamino)-1,2,4-triazine-6-carboxamide] | 10 to 100
NC(=O)c1nnc(N[C@@H]2CCNC2)nc1Nc1cccc(-c2ncccn2)c1 [Example 70, (R)-5-((3-(pyrimidin-2-yl)phenyl)amino)-3-(pyrrolidin-3-ylamino)-1,2,4-triazine-6-carboxamide] | 10 to 100
CC[C@@H](Nc1nnc(C(N)=O)c(Nc2cc(Cl)c3ncccc3c2)n1)C(N)=O [Example 177, (R)-3-((1-amino-1-oxobutan-2-yl)amino)-5-((8-chloroquinolin-6-yl)amino)-1,2,4-triazine-6-carboxamide] | 1 to 10
Cc1ccc(Nc2nc(N[C@@H]3CCCC(F)(F)[C@@H]3N)nnc2C(N)=O)cc1 [Example 167, 3-(((1R,2R)-2-amino-3,3-difluorocyclohexyl)amino)-5-(p-tolylamino)-1,2,4-triazine-6-carboxamide] | 10 to 100
NC(=O)c1nnc(N[C@@H]2CCCC(F)(F)[C@@H]2N)nc1Nc1cnn2ccccc12 [Example 36, 3-(((1R,2R)-2-amino-3,3-difluorocyclohexyl)amino)-5-(pyrazolo[1,5-a]pyridin-3-ylamino)-1,2,4-triazine-6-carboxamide] | 10 to 100
Cc1ccc(Nc2nc(N[C@@H]3CCCC(F)(F)[C@@H]3N)nnc2C(N)=O)cc1C [Example 204, 3-(((1R,2R)-2-amino-3,3-difluorocyclohexyl)amino)-5-((3,4-dimethylphenyl)amino)-1,2,4-triazine-6-carboxamide] | 10 to 100
NC(=O)c1nnc(N[C@@H]2CCCC[C@@H]2N)nc1Nc1ccc(F)c(Cl)c1 [Example 24, 3-(((1R,2S)-2-aminocyclohexyl)amino)-5-((3-chloro-4-fluorophenyl)amino)-1,2,4-triazine-6-carboxamide] | 1 to 10
